The data set has as its system rodent lifetime carcinogenesis bioassay, tumor incidence TD50. As to the kind of experiment: chronic cancer bioassays in animals – CPDB, compiled studies (AID 1745844).

Active and inactive are the calls of the source. No rule for the calls is given here.

As to `Cc1c(N)nc(C)c2c1[nH]c1ccccc12`, the TD50 (mouse, strain CDF1, females, in feed, site: liver, lesion: hepatocellular carcinoma, dosed 88 weeks, study length 88 weeks) is 29.6 mg/kg/day; the TD50 (mouse, strain CDF1, females, in feed, site: liver, lesion: several types, types named in the paper, dosed 88 weeks, study length 88 weeks) was 25 mg/kg/day; the TD50 (mouse, strain CDF1, males, in feed, site: liver, lesion: hepatocellular carcinoma, dosed 88 weeks, study length 88 weeks) was 112 mg/kg/day; the TD50 (mouse, strain CDF1, males, in feed, site: liver, lesion: several types, types named in the paper, dosed 88 weeks, study length 88 weeks) is 109 mg/kg/day; the TD50 (rat, strain F344/DuCrj, females, in feed, site: liver, lesion: hepatocellular carcinoma, dosed 52 weeks, study length 52 weeks) is 0.577 mg/kg/day; the TD50 (rat, strain F344/DuCrj, males, in feed, site: liver, lesion: hepatocellular carcinoma, dosed 52 weeks, study length 52 weeks) is 0.574 mg/kg/day.
As to `CC(O)CCl` (centres undefined), the carcinogen call is, setting by setting: (mouse, strain B6C3F1, females, in drinking water, site: any site (literature study), lesion: several types, types named in the paper, dosed 105 weeks, study length 105 weeks) “negative (inactive)”; (mouse, strain B6C3F1, males, in drinking water, site: any site (literature study), lesion: several types, types named in the paper, dosed 104 weeks, study length 104 weeks) “negative (inactive)”; (rat, strain Fischer 344, females, in drinking water, site: any site (literature study), lesion: several types, types named in the paper, dosed 104 weeks, study length 104 weeks) “negative (inactive)”; (rat, strain Fischer 344, males, in drinking water, site: any site (literature study), lesion: several types, types named in the paper, dosed 104 weeks, study length 104 weeks) “negative (inactive)”. In addition, the TD50 (mouse, strain B6C3F1, females, in drinking water, site: liver, lesion: hepatocellular adenoma + hepatoblastoma + hepatocellular carcinoma, dosed 105 weeks, study length 105 weeks) worked out at 1040 mg/kg/day; the TD50 (rat, strain Fischer 344, females, in drinking water, site: liver, lesion: hepatocellular adenoma + hepatoblastoma + hepatocellular carcinoma, dosed 104 weeks, study length 104 weeks) is 707 mg/kg/day; the TD50 (rat, strain Fischer 344, males, in drinking water, site: liver, lesion: hepatocellular adenoma + hepatoblastoma + hepatocellular carcinoma, dosed 104 weeks, study length 104 weeks) is 427 mg/kg/day.
As to `CC(=O)Nc1ccc(CC(=O)O)cc1`, the carcinogen call runs as follows: (mouse, strain B6C3F1, females, in feed, site: liver, lesion: hepatocellular adenoma, dosed 78 weeks, study length 78 weeks) “negative (inactive)”; (mouse, strain B6C3F1, females, in feed, site: liver, lesion: hepatocellular carcinoma, dosed 78 weeks, study length 78 weeks) “negative (inactive)”; (mouse, strain B6C3F1, females, in feed, site: lung, lesion: several types, types named in the paper, dosed 78 weeks, study length 78 weeks) “negative (inactive)”; (mouse, strain B6C3F1, males, in feed, site: liver, lesion: hepatocellular adenoma, dosed 78 weeks, study length 78 weeks) “negative (inactive)”; (rat, strain Fischer 344, females, in feed, site: liver, lesion: several types, types named in the paper, dosed 104 weeks, study length 104 weeks) “negative (inactive)”; (rat, strain Fischer 344, males, in feed, site: liver, lesion: hepatocellular adenoma, dosed 104 weeks, study length 104 weeks) “negative (inactive)”. For the same compound, the carcinogen call (rat, strain Fischer 344, males, in feed, site: liver, lesion: hepatocellular carcinoma, dosed 104 weeks, study length 104 weeks) is “negative (inactive)”. Moreover, the TD50 is 27700 mg/kg/day (inactive) (mouse, strain B6C3F1, males, in feed, site: lung, lesion: alveolar/bronchiolar adenoma, dosed 78 weeks, study length 78 weeks) and 56100 mg/kg/day (inactive) (mouse, strain B6C3F1, males, in feed, site: lung, lesion: alveolar/bronchiolar carcinoma, dosed 78 weeks, study length 78 weeks).
Consider `C/C(=C(\CCOC(=O)c1ccccc1)SC(=O)c1ccccc1)N(C=O)Cc1cnc(C)nc1N`, for which the TD50 is 14300 mg/kg/day (inactive) (rat, strain Sprague-Dawley, females, in feed, site: any site (literature study), lesion: malignant tumor, dosed 105 weeks, study length 105 weeks); 2340 mg/kg/day (inactive) (rat, strain Sprague-Dawley, males, in feed, site: any site (literature study), lesion: malignant tumor, dosed 105 weeks, study length 105 weeks); 6980 mg/kg/day (inactive) (rat, strain Sprague-Dawley, males, in feed, site: liver, lesion: liver-cell tumor, benign, dosed 105 weeks, study length 105 weeks); 6770 mg/kg/day (inactive) (rat, strain Sprague-Dawley, males, in feed, site: liver, lesion: liver-cell tumor, malignant, dosed 105 weeks, study length 105 weeks). The carcinogen call was “negative (inactive)” (rat, strain Sprague-Dawley, females, in feed, site: any site (literature study), lesion: several types, types named in the paper, dosed 105 weeks, study length 105 weeks); “negative (inactive)” (rat, strain Sprague-Dawley, females, in feed, site: liver, lesion: hemangiosarcoma anaplastic, dosed 105 weeks, study length 105 weeks); “negative (inactive)” (rat, strain Sprague-Dawley, males, in feed, site: any site (literature study), lesion: several types, types named in the paper, dosed 105 weeks, study length 105 weeks).
For the compound `CC1(C)[C@@H](O[C@H]2O[C@H](C(=O)O)[C@@H](O)[C@H](O)[C@H]2O[C@@H]2O[C@H](C(=O)O)[C@@H](O)[C@H](O)[C@H]2O)CC[C@]2(C)[C@H]3C(=O)C=C4[C@@H]5C[C@@](C)(C(=O)O)CC[C@]5(C)CC[C@@]4(C)[C@]3(C)CC[C@@H]12`, the carcinogen call was “negative (inactive)” (mouse, strain B6C3F1, females, in drinking water, site: any site (literature study), lesion: several types, types named in the paper, dosed 96 weeks, study length 110 weeks); “negative (inactive)” (mouse, strain B6C3F1, females, in drinking water, site: liver, lesion: hemangioma, dosed 96 weeks, study length 110 weeks); “negative (inactive)” (mouse, strain B6C3F1, females, in drinking water, site: lung, lesion: adenocarcinoma, dosed 96 weeks, study length 110 weeks); “negative (inactive)” (mouse, strain B6C3F1, males, in drinking water, site: liver, lesion: hemangioma, dosed 96 weeks, study length 110 weeks); “negative (inactive)” (mouse, strain B6C3F1, males, in drinking water, site: liver, lesion: hepatocellular adenoma, dosed 96 weeks, study length 110 weeks); “negative (inactive)” (mouse, strain B6C3F1, males, in drinking water, site: liver, lesion: hepatocellular carcinoma, dosed 96 weeks, study length 110 weeks). Moreover, the carcinogen call was “negative (inactive)” (mouse, strain B6C3F1, males, in drinking water, site: lung, lesion: adenocarcinoma, dosed 96 weeks, study length 110 weeks) and “negative (inactive)” (mouse, strain B6C3F1, males, in drinking water, site: lung, lesion: adenoma, dosed 96 weeks, study length 110 weeks). Further, the TD50 reads like this: (mouse, strain B6C3F1, females, in drinking water, site: liver, lesion: hepatocellular adenoma, dosed 96 weeks, study length 110 weeks) 28900 mg/kg/day (inactive); (mouse, strain B6C3F1, females, in drinking water, site: liver, lesion: hepatocellular carcinoma, dosed 96 weeks, study length 110 weeks) 29000 mg/kg/day (inactive); (mouse, strain B6C3F1, females, in drinking water, site: lung, lesion: adenoma, dosed 96 weeks, study length 110 weeks) 14400 mg/kg/day (inactive); (mouse, strain B6C3F1, males, in drinking water, site: any site (literature study), lesion: several types, types named in the paper, dosed 96 weeks, study length 110 weeks) 3170 mg/kg/day (inactive).
`NC(=O)OCC(COC(N)=O)c1ccccc1`: the TD50 runs as follows: (mouse, strain Charles River CD1, females, in feed, site: liver, lesion: hepatocellular adenoma, dosed 92 weeks, study length 92 weeks) 10400 mg/kg/day; (mouse, strain Charles River CD1, females, in feed, site: liver, lesion: several types, types named in the paper, dosed 92 weeks, study length 92 weeks) 10200 mg/kg/day; (mouse, strain Charles River CD1, males, in feed, site: liver, lesion: hepatocellular adenoma, dosed 92 weeks, study length 92 weeks) 5770 mg/kg/day; (rat, strain Charles River CD (Sprague-Dawley), females, in feed, site: liver, lesion: hepatocellular adenoma, dosed 104 weeks, study length 104 weeks) 934 mg/kg/day; (rat, strain Charles River CD (Sprague-Dawley), males, in feed, site: liver, lesion: several types, types named in the paper, dosed 104 weeks, study length 104 weeks) 9780 mg/kg/day; (rat, strain Charles River CD (Sprague-Dawley), males, in feed, site: testis, lesion: interstitial-cell tumor, dosed 104 weeks, study length 104 weeks) 1310 mg/kg/day. The carcinogen call by setting is: (rat, strain Charles River CD (Sprague-Dawley), females, in feed, site: liver, lesion: one or several types, types not named, dosed 52 weeks, study length 52 weeks) “negative (inactive)”; (rat, strain Charles River CD (Sprague-Dawley), males, in feed, site: liver, lesion: one or several types, types not named, dosed 52 weeks, study length 52 weeks) “negative (inactive)”.

What is called TD50 is the 50% point of the dose-response relation for the toxic effect studied.

For the origin of these results see PubChem BioAssay AID1745844 (Carcinogenic Potency Database (CPDB), 2022).
